One assay relates to human neutrophils. Kind of assay: Microfluidic Neutrophil Chemotaxis assay. Format: cell-based. As to conditions: for neutrophil (NF) migration counts (FIG. 1): 4 hour timepoint, in the presence of Aspergillus fumigatus, Compound 1, Compound 11, caspofungin acetate 10 nM, fMLP 100 nM, relative to A. fumigatus alone. The source says: Two layers of photoresist (SU8; […] The wafer with patterned photoresist was used as a mold to produce polydimethylsiloxane (PDMS) (Fisher Scientific) devices, which were then bonded to the base of glass-bottom 12- or 24-well plates, using an oxygen plasma machine (Nordson-March). De-identified, fresh human blood samples from healthy volunteers, aged 18 years and older, who were not receiving immunosuppressants, were purchased from Research Blood Components, LLC. Peripheral blood was drawn in tubes containing a final concentration of 5 mM EDTA (Vacutainer; Becton Dickinson) and processed within 2 h of blood collection. Using a sterile technique, neutrophils were isolated from whole blood using HetaSep followed by the EasySep Human Neutrophil Enrichment Kit (STEMCELL Technologies) following the manufacturer's protocol. The purity of neutrophils was assessed to be >98% using the Sysmex KX-21N Hematology Analyzer (Sysmex America, Inc.). White blood cells were isolated using Hetasep followed by a 5 min spin down and wash with 1×PBS. White blood cells were stained with Hoechst (32.4 μM) (Sigma) following the manufacture's protocols. The final aliquots of white blood cells were resuspended in RPMI plus 10% fetal bovine serum (FBS−stock 50 mL FBS/450 mL RPMI) (Sigma-Aldrich) at a concentration of 20,000 cells/2 μL and kept at 37° C. Cells were then immediately introduced into the microfluidic device for the chemotaxis and Aspergillus fumigatus killing assay. All experiments were repeated at least three times with neutrophils or white blood cells from three different healthy donors. Immediately after bonding to the well plate, donut-shaped devices were filled with Aspergillus fumigatus conidia at a concentration of 10^6 cells/mL with or without either Compound 1 or Compound 11 [10 nM], caspofungin acetate [10 nM] and/or a solution of the chemoattractant N-formyl-methionyl-leucyl-phenylalanine (fMLP) [100 nM](Sigma-Aldrich, St. Louis, Mo.). The device was then placed in a vacuum for 15 min. The solution filled all of the FCCs as the air was displaced. The devices were then vigorously washed five times with 1×PBS to remove any residual Aspergillus fumigatus conidia, drug or chemoattractant that was outside of the FCCs. The device was then submerged in 0.5 mL of cell media. Neutrophils or white blood cells (20,000 cells/2 μL) were then pipetted into the cell loading chamber (CLC) using a gel-loading pipette tip. […] Image analysis of cell migration counts and fungi growth was analyzed by hand using Image J software. Neutrophil counts per chamber were counted every 15 min for the first 2 hours of the experiment and then every hour for the remaining 16 hours. Percentage of conidia that converted to hyphal growth was measured by counting conidia loaded per chamber before neutrophils or WBCs were loaded into the chamber and counting numbers of these conidia that grew hyphae by 18 hours. Fungal growth velocity was calculated using Image J. The 16 chambers in each device (n=3) were analyzed for at least three different healthy donors.

The subject of assay [1] is Aspergillus fumigatus strain AF293. Put plainly: Microfluidic Aspergillus fumigatus Killing Assay with human neutrophils. It is filed as cell-based. As to conditions: for percent hyphal growth compared to remaining conidia (FIG. 2): with added neutrophils (NFs), Compound 1, Compound 11, caspofungin acetate 10 nM, fMLP 100 nM, hyphae by 18 hours; for timecourse of A. fumigatus (Af) growth in FCCs (FIG. 4): in presence of PMNs, three healthy blood donors, t=0, 8, and 16 hours. The text has this:
Microfluidic devices used to measure leukocyte migration in response to Aspergillus fumigatus with or without drug (Compound 1 or Compound 11), antifungal control (caspofungin acetate) and/or chemoattractant (fMLP) were manufactured using known microfabrication techniques. Two layers of photoresist (SU8; Microchem), the first one 10 μm thin (corresponding to the migration channels) and the second one 70 μm thick, corresponding to the focal chemotactic chambers (FCCs) were patterned on one silicon wafer sequentially using two photolithographic masks and processing cycles according to the instructions from the manufacturer. The wafer with patterned photoresist was used as a mold to produce polydimethylsiloxane (PDMS) (Fisher Scientific) devices, which were then bonded to the base of glass-bottom 12- or 24-well plates, using an oxygen plasma machine (Nordson-March).
Aspergillus fumigatus strain AF293 expressing either cytosolic red fluorescent protein (RFP) or green fluorescent protein (GFP) was grown on Sabouraud dextrose agar plates supplemented with 100 μg/mL ampicillin at 30° C. for 3-4 days. Conidia were harvested by gentle scraping followed by washing in ice-cold phosphate buffered saline (PBS) three times. Conidia were immediately used or stored at 4° C. for use within one week.
De-identified, fresh human blood samples from healthy volunteers, aged 18 years and older, who were not receiving immunosuppressants, were purchased from Research Blood Components, LLC. Peripheral blood was drawn in tubes containing a final concentration of 5 mM EDTA (Vacutainer; Becton Dickinson) and processed within 2 h of blood collection. Using a sterile technique, neutrophils were isolated from whole blood using HetaSep followed by the EasySep Human Neutrophil Enrichment Kit ([…] Technologies) following the manufacturer's protocol. The purity of neutrophils was assessed to be >98% using the Sysmex KX-21N Hematology Analyzer (Sysmex America, Inc.). White blood cells were isolated using Hetasep followed by a 5 min spin down and wash with 1×PBS. White blood cells were stained with Hoechst (32.4 μM) (Sigma) following the manufacture's protocols. The final aliquots of white blood cells were resuspended in RPMI plus 10% fetal bovine serum (FBS−stock 50 mL FBS/450 mL RPMI) (Sigma-Aldrich) at a concentration of 20,000 cells/2 μL and kept at 37° C. Cells were then immediately introduced into the microfluidic device for the chemotaxis and Aspergillus fumigatus killing assay. All experiments were repeated at least three times with neutrophils or white blood cells from three different healthy donors.
Immediately after bonding to the well plate, donut-shaped devices were filled with Aspergillus fumigatus conidia at a concentration of 10^6 cells/mL with or without either Compound 1 or Compound 11 [10 nM], caspofungin acetate [10 nM] and/or a solution of the chemoattractant N-formyl-methionyl-leucyl-phenylalanine (fMLP) [100 nM](Sigma-Aldrich, St. Louis, Mo.). The device was then placed in a vacuum for 15 min. The solution filled all of the FCCs as the air was displaced. The devices were then vigorously washed five times with 1×PBS to remove any residual Aspergillus fumigatus conidia, drug or chemoattractant that was outside of the FCCs. The device was then submerged in 0.5 mL of cell media. Neutrophils or white blood cells (20,000 cells/2 μL) were then pipetted into the cell loading chamber (CLC) using a gel-loading pipette tip. Neutrophil migration into the migration channel toward the FCC started immediately and was recorded using time-lapse imaging on a fully automated Nikon TiE microscope (10× magnification) with biochamber heated to 37° C. with 5% carbon dioxide gas. Image analysis of cell migration counts and fungi growth was analyzed by hand using Image J software.
Image analysis of cell migration counts and fungi growth was analyzed by hand using Image J software.

From patent US20160213742A1, “COMPOSITIONS AND METHODS FOR THE TREATMENT OF FUNGAL INFECTIONS” (priority 2013, published 2016) come the findings set out here.

Entries after “also recorded” stand apart in the source; their conditions may differ.

On to `CC[C@H](C)C[C@H](C)CCCCCCCCC(=O)N[C@H]1C[C@@H](O)[C@@H](NCCN)NC(=O)[C@@H]2[C@@H](O)CCN2C(=O)[C@H]([C@H](O)CCNC(=O)[C@H](Cc2ccccc2)NC(=O)[C@H](CC(C)C)NC(=O)[C@H](CCSC)NC=O)NC(=O)[C@H]([C@H](O)[C@@H](O)c2ccc(O)cc2)NC(=O)[C@@H]2C[C@@H](O)CN2C(=O)[C@H]([C@@H](C)O)NC1=O` [Compound 1], for which the “neutrophil (NF) migration counts (FIG. 1)” value (“neutrophil … (FIG. 1)” below) in the assay with human neutrophils is recorded as “increased NF migration”. The “percent hyphal growth compared to remaining conidia (FIG. 2)” value in assay [1] is “inhibition of Aspergillus fumigatus hyphal growth; also recorded: able to suppress hyphal growth”.
Turning to `CC[C@H](C)C[C@H](C)CCCCCCCCC(=O)N[C@H]1C[C@@H](O)[C@@H](OCCN)NC(=O)[C@@H]2[C@@H](O)CCN2C(=O)[C@H]([C@H](O)CCNC(=O)[C@H](Cc2ccccc2)NC(=O)[C@H](CC(C)C)NC(=O)[C@H](CCSC)NC=O)NC(=O)[C@H]([C@H](O)[C@@H](O)c2ccc(O)cc2)NC(=O)[C@@H]2C[C@@H](O)CN2C(=O)[C@H]([C@@H](C)O)NC1=O` [Compound 11], the “neutrophil … (FIG. 1)” value with human neutrophils is recorded as “increased NF migration”. Moreover, the “timecourse of neutrophil (PMNs) migration in FCCs (FIG. 4)” value in the assay with human neutrophils (with A. fumigatus, three healthy blood donors, t=0, 8, and 16 hours) is on record as “migration of PMNs”. In assay [1], the “timecourse of A. fumigatus (Af) growth in FCCs (FIG. 4)” value is listed as “inhibition of growth of Af” and the “percent hyphal growth compared to remaining conidia (FIG. 2)” value is reported as “inhibition of Aspergillus fumigatus hyphal growth; also recorded: able to suppress hyphal growth”.
Turning to “caspofungin acetate [reference compound]”, the “neutrophil … (FIG. 1)” value in the assay on human neutrophils was “did not give increased NF migration”. Moreover, in assay [1], the “timecourse of A. fumigatus (Af) growth in FCCs (FIG. 4)” value was “growth of Af”.
